Source: patent publication US20260258064A1 (SIRONAX LTD., priority 2023, published 2026)
pIC50: −log10 of the molar value.

target: T1, SARM1 (50-724) (Homo sapiens, UniProt Q6SZW1); assay: SARM1 (50-724) enzymatic assay (LC-MS/MS); format: biochemical; details: Purified SARM1 (50-724) 2 nM, NMN as activator, NAD+ as substrate, 1 h at room temperature, read-out: IC50 (SARM1 inhibitory activity)
T1 construct: Purified SARM1 (50-724) with a final concentration of 2 nM was pre-incubated with a test compound
T1 sequence (Q6SZW1 50-724): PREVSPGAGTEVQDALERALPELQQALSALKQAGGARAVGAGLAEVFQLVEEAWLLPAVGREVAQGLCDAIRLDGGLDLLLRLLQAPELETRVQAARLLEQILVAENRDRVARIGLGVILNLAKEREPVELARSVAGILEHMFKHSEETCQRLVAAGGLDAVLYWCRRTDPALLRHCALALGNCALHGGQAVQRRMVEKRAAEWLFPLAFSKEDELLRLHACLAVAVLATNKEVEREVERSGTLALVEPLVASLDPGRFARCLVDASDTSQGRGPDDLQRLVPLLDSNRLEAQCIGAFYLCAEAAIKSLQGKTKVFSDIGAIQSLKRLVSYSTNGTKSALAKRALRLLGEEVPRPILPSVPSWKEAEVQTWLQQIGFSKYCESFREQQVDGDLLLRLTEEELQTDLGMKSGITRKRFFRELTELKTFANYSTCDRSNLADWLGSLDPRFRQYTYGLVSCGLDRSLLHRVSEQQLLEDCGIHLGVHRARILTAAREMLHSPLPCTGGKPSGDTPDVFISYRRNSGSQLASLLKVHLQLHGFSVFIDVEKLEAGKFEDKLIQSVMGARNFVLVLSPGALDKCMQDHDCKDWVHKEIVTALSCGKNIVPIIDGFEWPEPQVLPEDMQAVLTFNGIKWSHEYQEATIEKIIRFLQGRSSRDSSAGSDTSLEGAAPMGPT
How it was run: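 Human SARM1 (50-724), 2 nM, pre-incubated 15 min at room temperature with compound in Dulbecco's PBS. Reaction started with 200 µM NMN (activator) plus […] NAD^+ substrate, run 1 h at room temperature, quenched with 70% acetonitrile. Turnover quantified by LC-MS/MS; IC50 reported.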

| Compound | pIC50 |
| --- | --- |
| OCCc1cccc(OC(F)(F)F)c1-n1cnnc1-c1nc2cc(C(F)(F)F)ccc2[nH]1 [Compound 295, 2-(3-(trifluoromethoxy)-2-(3-(5-(trifluoromethyl)-1H-benzo[d]imidazol-2-yl)-4H-1,2,4-triazol-4-yl)phenyl)ethan-1-ol] | ≥ 7.00 |
| FC(F)(F)c1ccc2[nH]c(-c3ccnnc3-c3cccc(Cl)c3Cl)nc2c1 [Compound 296, 2-(3-(2,3-dichlorophenyl)pyridazin-4-yl)-5-(trifluoromethyl)-1H-benzo[d]imidazole] | 6.30 to 7.00 |
| CN(C)c1cc(F)c2[nH]c(-c3nncn3-c3cnccc3C(F)(F)F)nc2c1 [Compound 297, 7-fluoro-N,N-dimethyl-2-(4-(4-(trifluoromethyl)pyridin-3-yl)-4H-1,2,4-triazol-3-yl)-1H-benzo[d]imidazol-5-amine] | ≥ 7.00 |
| Fc1cc(C2CC2(F)F)cc2nc(-c3nncn3-c3cnccc3C(F)(F)F)[nH]c12 (centres unmarked) [Compound 298, 5-(2,2-difluorocyclopropyl)-7-fluoro-2-(4-(4-(trifluoromethyl)pyridin-3-yl)-4H-1,2,4-triazol-3-yl)-1H-benzo[d]imidazole] | ≥ 7.00 |
| FC(F)(F)c1cc2cc(-c3nncn3-c3cnccc3C(F)(F)F)[nH]c2cn1 [Compound 299, 5-(trifluoromethyl)-2-(4-(4-(trifluoromethyl)pyridin-3-yl)-4H-1,2,4-triazol-3-yl)-1H-pyrrolo[2,3-c]pyridine] | < 6.00 |
| Fc1c(C2CC2)cc(F)c2[nH]c(-c3nncn3-c3cnccc3C(F)(F)F)nc12 [Compound 300, 5-cyclopropyl-4,7-difluoro-2-(4-(4-(trifluoromethyl)pyridin-3-yl)-4H-1,2,4-triazol-3-yl)-1H-benzo[d]imidazole] | ≥ 7.00 |
| Fc1cc(N2CCC2)cc2nc(-c3nncn3-c3cnccc3C(F)(F)F)[nH]c12 [Compound 301, 5-(azetidin-1-yl)-7-fluoro-2-(4-(4-(trifluoromethyl)pyridin-3-yl)-4H-1,2,4-triazol-3-yl)-1H-benzo[d]imidazole] | 6.30 to 7.00 |
| FC(F)(F)c1ccc2[nH]c(-c3nnccc3-c3ccncc3C(F)(F)F)nc2c1 [Compound 302, 5-(Trifluoromethyl)-2-(4-(3-(trifluoromethyl)pyridin-4-yl)pyridazin-3-yl)-1H-benzo[d]imidazole] | 6.30 to 7.00 |
| Fc1cc(C(F)(F)F)cc2nc(-c3nnccc3-c3cnccc3C(F)(F)F)[nH]c12 [Compound 303, 7-Fluoro-5-(trifluoromethyl)-2-(4-(4-(trifluoromethyl)pyridin-3-yl)pyridazin-3-yl)-1H-benzo[d]imidazole] | ≥ 7.00 |
| FC(F)(F)c1ccc2[nH]c(-c3nccnc3-c3cccc(Cl)c3Cl)nc2c1 [Compound 304, 2-(3-(2,3-dichlorophenyl)pyrazin-2-yl)-5-(trifluoromethyl)-1H-benzo[d]imidazole] | 6.00 to 6.30 |
| FC(F)(F)c1ccc2[nH]c(-c3cccn3-c3nnccc3C(F)(F)F)nc2c1 [Compound 305, 5-(Trifluoromethyl)-2-(1-(4-(trifluoromethyl)pyridazin-3-yl)-1H-pyrrol-2-yl)-1H-benzo[d]imidazole] | ≥ 7.00 |
| FC(F)c1nnc(-c2nc3cc(C(F)(F)F)ccc3[nH]2)n1-c1cnccc1C(F)(F)F [Compound 306, 2-(5-(difluoromethyl)-4-(4-(trifluoromethyl)pyridin-3-yl)-4H-1,2,4-triazol-3-yl)-5-(trifluoromethyl)-1H-benzo[d]imidazole] | ≥ 7.00 |
| FC(F)(F)c1ccc2[nH]c(-c3nncnc3-c3cccc(Cl)c3Cl)nc2c1 [Compound 307, 2-(5-(2,3-dichlorophenyl)-1,2,4-triazin-6-yl)-5-(trifluoromethyl)-1H-benzo[d]imidazole] | ≥ 7.00 |
| CCn1ccc2[nH]c(-c3nncn3-c3cccc(F)c3Cl)cc2c1=O [Compound 308, 2-(4-(2-chloro-3-fluorophenyl)-4H-1,2,4-triazol-3-yl)-5-ethyl-1,5-dihydro-4H-pyrrolo[3,2-c]pyridin-4-one] | 6.30 to 7.00 |
